This passage reports Ki and Ratio results from ChEMBL document CHEMBL1131908 (Bioorg Med Chem Lett, 1999).

Test [1] deals with T1, Mu-type opioid receptor (Rattus norvegicus, UniProt P33535). The experiment in a line: Ability to displace [3H]DAMGO from mu opioid receptor.
The target of test [2] is T2, Delta-type opioid receptor (Rattus norvegicus, UniProt P33533). The test can be described thus: Ability to inhibit binding of SNC80 to delta opioid receptor.
Test [3] has as its target T3, Kappa-type opioid receptor (Cavia porcellus, UniProt P41144). The test can be described thus: Ability to displace [3H]U-69593 from kappa opioid receptor.
For test [4], the target named is T2, Delta-type opioid receptor. The experiment in a line: Ability to displace [3H]DADL from delta opioid receptor.
In test [5] the target is T1, Mu-type opioid receptor. The experiment in a line: Ability to inhibit binding of [3H]DAMGO to mu opioid receptor.
In test [6] the target is T3, Kappa-type opioid receptor. The experiment in a line: Ability to inhibit binding of U-69,593 to kappa opioid receptor.
Test [7] deals with Opioid receptors; mu & delta (Homo sapiens) (UniProt P41143+P35372). The experiment in a line: Ratio of binding affinities of mu and delta opioid receptors. The test is classed as protein assay.

Some results are limits rather than exact numbers.

T3 sequence (P41144 whole entry): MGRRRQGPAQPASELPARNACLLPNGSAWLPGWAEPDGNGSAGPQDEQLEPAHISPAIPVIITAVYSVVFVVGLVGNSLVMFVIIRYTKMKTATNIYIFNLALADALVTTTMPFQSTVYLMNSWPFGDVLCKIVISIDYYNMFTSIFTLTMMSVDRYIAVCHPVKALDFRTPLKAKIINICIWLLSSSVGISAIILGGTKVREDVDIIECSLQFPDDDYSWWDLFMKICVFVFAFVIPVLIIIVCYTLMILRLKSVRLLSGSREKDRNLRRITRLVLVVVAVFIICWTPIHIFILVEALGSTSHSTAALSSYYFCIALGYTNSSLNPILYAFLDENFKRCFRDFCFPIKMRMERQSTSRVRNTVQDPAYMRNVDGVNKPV
T2 sequence (P33533 whole entry): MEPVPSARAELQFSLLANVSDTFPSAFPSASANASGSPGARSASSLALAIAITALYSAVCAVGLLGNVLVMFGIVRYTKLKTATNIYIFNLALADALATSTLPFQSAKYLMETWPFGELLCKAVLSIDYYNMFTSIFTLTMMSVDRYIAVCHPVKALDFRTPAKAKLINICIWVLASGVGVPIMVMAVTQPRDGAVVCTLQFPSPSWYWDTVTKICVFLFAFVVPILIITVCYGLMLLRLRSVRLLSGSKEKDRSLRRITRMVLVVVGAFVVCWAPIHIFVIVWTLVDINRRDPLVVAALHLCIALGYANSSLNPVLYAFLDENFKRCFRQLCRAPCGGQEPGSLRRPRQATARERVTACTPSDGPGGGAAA
T1 sequence (P33535 whole entry): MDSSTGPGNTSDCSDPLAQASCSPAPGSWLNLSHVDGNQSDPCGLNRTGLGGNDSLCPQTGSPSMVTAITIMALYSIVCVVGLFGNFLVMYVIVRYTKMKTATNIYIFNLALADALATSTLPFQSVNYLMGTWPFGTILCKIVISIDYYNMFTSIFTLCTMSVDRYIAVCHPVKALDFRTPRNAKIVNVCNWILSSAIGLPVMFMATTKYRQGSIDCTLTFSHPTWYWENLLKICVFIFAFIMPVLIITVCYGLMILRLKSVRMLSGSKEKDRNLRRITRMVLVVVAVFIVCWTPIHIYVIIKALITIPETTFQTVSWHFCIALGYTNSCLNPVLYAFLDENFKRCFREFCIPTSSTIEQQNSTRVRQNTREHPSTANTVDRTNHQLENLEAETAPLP
Opioid receptors; mu & delta (Homo sapiens), sequence (P35372 whole entry, looked up): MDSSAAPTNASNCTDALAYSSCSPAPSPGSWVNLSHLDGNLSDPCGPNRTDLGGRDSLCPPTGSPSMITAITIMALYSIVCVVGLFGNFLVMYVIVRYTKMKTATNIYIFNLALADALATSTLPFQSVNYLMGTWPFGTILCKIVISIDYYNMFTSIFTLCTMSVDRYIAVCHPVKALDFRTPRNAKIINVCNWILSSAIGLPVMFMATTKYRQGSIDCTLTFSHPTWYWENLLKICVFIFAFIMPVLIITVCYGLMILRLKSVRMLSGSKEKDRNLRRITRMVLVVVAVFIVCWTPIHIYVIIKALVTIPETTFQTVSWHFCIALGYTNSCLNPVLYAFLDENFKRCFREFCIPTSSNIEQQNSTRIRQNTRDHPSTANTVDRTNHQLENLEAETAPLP
Opioid receptors; mu & delta (Homo sapiens), sequence (P41143 whole entry, looked up): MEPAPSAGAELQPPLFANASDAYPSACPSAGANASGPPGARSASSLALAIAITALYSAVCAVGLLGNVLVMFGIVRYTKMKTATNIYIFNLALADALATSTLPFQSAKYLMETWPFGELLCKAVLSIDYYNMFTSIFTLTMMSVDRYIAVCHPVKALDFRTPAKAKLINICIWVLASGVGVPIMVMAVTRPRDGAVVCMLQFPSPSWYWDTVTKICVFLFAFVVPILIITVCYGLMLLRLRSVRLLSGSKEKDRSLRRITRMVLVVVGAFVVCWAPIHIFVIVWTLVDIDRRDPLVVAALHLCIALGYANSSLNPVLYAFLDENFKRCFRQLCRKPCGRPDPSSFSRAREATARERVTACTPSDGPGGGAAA

For `COc1ccc2c3c1OC1c4[nH]c5ccccc5c4C[C@@]4(O)[C@@H](C2)N(CC2CC2)CC[C@]314` (some centres undefined), the inhibition constant Ki was determined as 2510 nM in test [1]; 9 nM in test [2]; 3910 nM in test [3]; 6.57 nM in test [4]; 411 nM in test [5]; 1760 nM in test [6].

For the compound `O[C@@]12Cc3c([nH]c4ccccc34)C3Oc4c(OCCCc5ccccc5)ccc5c4[C@@]31CCN(CC1CC1)[C@@H]2C5` (some centres undefined), the Ki is over 6250 nM in test [1], over 5320 nM in test [3] and 99 nM in test [4]. Moreover, in test [7], the Ratio came out at 54.

As for `O[C@@]12Cc3c([nH]c4ccccc34)C3Oc4c(OCCc5ccccc5)ccc5c4[C@@]31CCN(CC1CC1)[C@@H]2C5` (some centres undefined), the figures for the Ki in test [1], in test [3] and in test [4] were over 6250 nM, over 7040 nM and 1040 nM, respectively. For the same compound, in test [7], the Ratio is 7.

`Oc1ccc2c3c1O[C@H]1c4[nH]c5ccccc5c4C[C@@]4(O)[C@@H](C2)N(CC2CC2)CC[C@]314` [NALTRINDOLE] registered an inhibition constant Ki in test [2] of 0.062 nM.

Take `O[C@@]12Cc3c([nH]c4ccccc34)C3Oc4c(OCc5ccccc5)ccc5c4[C@@]31CCN(CC1CC1)[C@@H]2C5` (some centres undefined): the Ki in test [1] amounted to 396 nM; in test [3], 728 nM; in test [4], 103 nM. Besides, the Ratio in test [7] turned out to be 4.

What is called Ki is a measure of affinity in units of concentration, obtained from inhibition or displacement. Low values mean higher affinity, high ones lower affinity.
